Measured values published in ChEMBL document CHEMBL3751774, “Synthesis and anti-tubercular activity of conformationally-constrained and bisquinoline analogs of TMC207” (Medchemcomm, 2015).
In brackets after ≈: the same amount, converted by molar mass.

How the values were obtained:
[1] = system: Mycobacterium tuberculosis; assay: Antitubercular activity against multi drug resistant Mycobacterium tuberculosis isolate 1 assessed as growth inhibition after 4 weeks; type: functional; conditions: isolate 1, 672 h
[2] = system: Mycobacterium tuberculosis; assay: Antitubercular activity against multi drug resistant Mycobacterium tuberculosis isolate 2 assessed as growth inhibition after 4 weeks; type: functional; conditions: isolate 2, 672 h

SMILES	MIC [1] [µM]	MIC [2] [µM]
C=CCCOc1nc2ccccc2cc1C(c1cc2ccccc2nc1OCCC=C)C(O)(CCN(C)C)c1ccc(Br)cc1 (stereo not drawn)	3.12 (≈ 2.08 µg/mL)	3.12 (≈ 2.08 µg/mL)
COc1nc2ccccc2cc1C(c1cc2ccccc2nc1OC)C(O)(CCN(C)C)c1cccc(Br)c1 (stereo not drawn)	3.12 (≈ 1.83 µg/mL)	3.12 (≈ 1.83 µg/mL)
COc1nc2ccccc2cc1C(c1cc2ccccc2nc1OC)C(O)(CCN(C)C)c1ccccc1 (stereo not drawn)	3.12 (≈ 1.58 µg/mL)	3.12 (≈ 1.58 µg/mL)
COc1nc2ccccc2cc1C(c1cc2ccccc2nc1OC)C(O)(CCN(C)C)c1ccc2ccccc2c1 (stereo not drawn)	3.12 (≈ 1.74 µg/mL)	3.12 (≈ 1.74 µg/mL)
